Test system: Plasmodium falciparum 3D7
Assay: P. falciparum 3D7 asexual blood stage assay, Assay Procedure Version 2 (SYBR green readout)
Type: cell-based
Conditions: Plasmodium falciparum, 3D7, Erythrocyte, 72 h, Version 2 of the assay procedure (asterisk *); 72 h incubation in infected erythrocytes; 50,000 nM to 15 nM
In short: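 Parasite growth read as DNA fluorescence (SYBR green lysis overnight, ex 485/em 528 nm) after 72 h drug exposure of 3D7-infected erythrocytes at 0.5% parasitaemia, 5% haematocrit, 37 °C under 1% O2/3% CO2. Compounds tested 15–50,000 nM final, 0.5% DMSO; normalised to mefloquine (100%) and DMSO (0%), biphasic two-site EC50 fitting.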

Structure (SMILES)	IC50 [nM]
C[C@@]1(c2cccc(Nc3cccc(Oc4ccccc4)c3)c2Cl)CC(=O)N(C2CCOCC2)C(=N)N1 [Example 75, (6S)-6-[2-Chloro-3-(3-phenoxy-anilino)phenyl]-2-imino-6-methyl-3-(tetrahydropyran-4-yl)hexahydropyrimidin-4-one]	1460
C[C@@]1(c2cccc(Nc3cccc(N4CCCC4=O)c3)c2Cl)CC(=O)N(C2CCOCC2)C(=N)N1 [Example 79, (6S)-6-{2-Chloro-3-[3-(2-oxo-pyrrolidin-1-yl)anilino]phenyl}-2-imino-6-methyl-3-(tetrahydro-pyran-4-yl)hexahydropyrimidin-4-one]	401
Cc1nnc(-c2ccc(Nc3cccc([C@]4(C)CC(=O)N(C5CCOCC5)C(=N)N4)c3Cl)cc2)o1 [Example 80, (6S)-6-{2-Chloro-3-[4-(5-methyl-1,3,4-oxadiazol-2-yl)-anilino]phenyl}-2-imino-6-methyl-3-(tetrahydropyran-4-yl)hexahydropyrimidin-4-one]	652
C[C@@]1(c2cccc(Nc3ccc4ncnn4c3)c2Cl)CC(=O)N(C2CCOCC2)C(=N)N1 [Example 85, (6S)-6-[2-Chloro-3-([1,2,4]-triazolo[1,5-a]pyridin-6-yl-amino)phenyl]-2-imino-6-methyl-3-(tetrahydropyran-4-yl)hexahydropyrimidin-4-one]	1790
CN1CCOc2cc(Nc3cccc([C@]4(C)CC(=O)N(C5CCOCC5)C(=N)N4)c3Cl)ccc21 [Example 86, (6S)-6-{2-Chloro-3-[(4-methyl-2,3-dihydro-1,4-benzoxazin-7-yl)amino]phenyl}-2-imino-6-methyl-3-(tetrahydropyran-4-yl)hexahydropyrimidin-4-one]	658
COc1cc(Nc2cccc([C@]3(C)CC(=O)N(C4CCOCC4)C(=N)N3)c2Cl)ccn1 [Example 87, (6S)-6-{2-Chloro-3-[(2-methoxypyridin-4-yl)amino]-phenyl}-2-imino-6-methyl-3-(tetrahydropyran-4-yl)-hexahydropyrimidin-4-one]	666
Cc1ncc(Nc2cccc([C@]3(C)CC(=O)N(C4CCOCC4)C(=N)N3)c2Cl)c2ccccc12 [Example 90, (6S)-6-{2-Chloro-3-[(1-methyl-isoquinolin-4-yl)amino]phenyl}-2-imino-6-methyl-3-(tetrahydro-pyran-4-yl)hexahydropyrimidin-4-one]	3110
C[C@@]1(c2cccc(Nc3ccc(F)cc3OC(F)F)c2Cl)CC(=O)N(C2CCOCC2)C(=N)N1 [Example 92, (6S)-6-{2-Chloro-3-[2-(difluoro-methoxy)-4-fluoro-anilino]-phenyl}-2-imino-6-methyl-3-(tetrahydropyran-4-yl)-hexahydropyrimidin-4-one]	461
Cc1ncc(Nc2cccc([C@]3(C)CC(=O)N(C4CCOCC4)C(=N)N3)c2Cl)cc1C(F)(F)F [Example 93, (6S)-6-(2-Chloro-3-{[6-methyl-5-(trifluoromethyl)pyridin-3-yl]-amino}phenyl)-2-imino-6-methyl-3-(tetrahydropyran-4-yl)hexahydropyrimidin-4-one]	70

Now from value to compound:

IC50 [nM]	Structure (SMILES)
757	CC(C)Oc1ccccc1Nc1cccc([C@]2(C)CC(=O)N(C3CCOCC3)C(=N)N2)c1Cl [Example 76, (6S)-6-[2-Chloro-3-(2-isopropoxyanilino)phenyl]-2-imino-6-methyl-3-(tetrahydro-pyran-4-yl)hexahydropyrimidin-4-one]
791	Cn1cc2c(Nc3cccc([C@]4(C)CC(=O)N(C5CCOCC5)C(=N)N4)c3Cl)cccc2n1 [Example 77, (6S)-6-{2-Chloro-3-[(2-methyl-indazol-4-yl)amino]phenyl}-2-imino-6-methyl-3-(tetrahydro-pyran-4-yl)hexahydropyrimidin-4-one]
1420	Cn1cc2cc(Nc3cccc([C@]4(C)CC(=O)N(C5CCOCC5)C(=N)N4)c3Cl)ccc2n1 [Example 78, (6S)-6-{2-Chloro-3-[(2-methyl-indazol-5-yl)amino]phenyl}-2-imino-6-methyl-3-(tetrahydro-pyran-4-yl)hexahydropyrimidin-4-one]
425	C[C@@]1(c2cccc(Nc3ccc(C(F)F)nc3)c2Cl)CC(=O)N(C2CCOCC2)C(=N)N1 [Example 81, (6S)-6-(2-Chloro-3-{[6-(difluoromethyl)pyridin-3-yl]-amino}phenyl)-2-imino-6-methyl-3-tetrahydropyran-4-yl-hexahydropyrimidin-4-one]
137	C[C@@]1(c2cccc(Nc3ccc(F)cc3C#N)c2Cl)CC(=O)N(C2CCOCC2)C(=N)N1 [Example 82, 2-{2-Chloro-3-[(4S)-2-imino-4-methyl-6-oxo-1-(tetrahydro-pyran-4-yl)hexahydropyrimidin-4-yl]anilino}-5-fluorobenzo-nitrile]
357	C[C@@]1(c2cccc(Nc3ccc(C(F)(F)F)cc3C#N)c2Cl)CC(=O)N(C2CCOCC2)C(=N)N1 [Example 83, 2-{2-Chloro-3-[(4S)-2-imino-4-methyl-6-oxo-1-(tetrahydro-pyran-4-yl)hexahydropyrimidin-4-yl]anilino}-5-(trifluoro-methyl)benzonitrile]
1540	Cc1ccc(Nc2cccc([C@]3(C)CC(=O)N(C4CCOCC4)C(=N)N3)c2Cl)nn1 [Example 84, (6S)-6-{2-Chloro-3-[(6-methyl-pyridazin-3-yl)amino]phenyl}-2-imino-6-methyl-3-(tetrahydro-pyran-4-yl)hexahydropyrimidin-4-one]
532	Cc1ccc(Nc2cccc([C@]3(C)CC(=O)N(C4CCOCC4)C(=N)N3)c2Cl)c(C#N)n1 [Example 88, 3-{2-Chloro-3-[(4S)-2-imino-4-methyl-6-oxo-1-(tetrahydro-pyran-4-yl)hexahydropyrimidin-4-yl]anilino}-6-methylpyridine-2-carbonitrile]
232	C[C@@]1(c2cccc(Nc3cnc4ccccc4c3C#N)c2Cl)CC(=O)N(C2CCOCC2)C(=N)N1 [Example 89, 3-{2-Chloro-3-[(4S)-2-imino-4-methyl-6-oxo-1-(tetrahydro-pyran-4-yl)hexahydropyrimidin-4-yl]anilino}quinoline-4-carbonitrile]
896	C[C@@]1(c2cccc(Nc3ccn4nccc4c3)c2Cl)CC(=O)N(C2CCOCC2)C(=N)N1 [Example 91, (6S)-6-[2-Chloro-3-(pyrazolo-[1,5-a]pyridin-5-ylamino)-phenyl]-2-imino-6-methyl-3-(tetrahydropyran-4-yl)-hexahydropyrimidin-4-one]
34	Cc1ccc(Nc2cccc([C@]3(C)CC(=O)N(C4CCOCC4)C(=N)N3)c2Cl)c(OC(F)F)n1 [Example 94, (6S)-6-(2-Chloro-3-{[2-(difluoromethoxy)-6-methyl-pyridin-3-yl]amino}phenyl)-2-imino-6-methyl-3-(tetrahydro-pyran-4-yl)hexahydropyrimidin-4-one]
456	C[C@@]1(c2cccc(Nc3cnc(OC(F)F)c4ccccc34)c2Cl)CC(=O)N(C2CCOCC2)C(=N)N1 [Example 95, (6S)-6-(2-Chloro-3-{[1-(difluoromethoxy)isoquinolin-4-yl]amino}phenyl)-2-imino-6-methyl-3-(tetrahydropyran-4-yl)hexahydropyrimidin-4-one]
195	C[C@@]1(c2cccc(Nc3ccc(C#N)cc3OC(F)F)c2Cl)CC(=O)N(C2CCOCC2)C(=N)N1 [Example 96, 4-{2-Chloro-3-[(4S)-2-imino-4-methyl-6-oxo-1-(tetrahydro-pyran-4-yl)hexahydropyrimidin-4-yl]anilino}-3-(difluoro-methoxy)benzonitrile]

From US11479546B2, “Antimalarial hexahydropyrimidine analogues” (UCB Biopharma SRL, priority 2018, dated 2022)
